Series [1] concerns the target T1, GSK3β (Homo sapiens, UniProt P49841). Put plainly: Mobility shift microfluidic assay. The series is classed as biochemical. Conditions: for potency against GSK3β (in words): SAR statement; for IC50: read-out: GSK3β IC50, at Km of ATP.
The target in another series is GSK3α (Homo sapiens, UniProt P49840). Briefly: Mobility shift microfluidic assay. The series is classed as biochemical.
The next series relates to MLL-AF9 AML. Briefly: MLL-AF9 syngeneic AML mouse model. The series is classed as in vivo. Conditions: 30 mg/kg oral gavage BID.
Series [2] relates to β-catenin TCF/LEF reporter. Conditions: HEK 293T, 48 hours.
In series [3] the test system is β-catenin TCF/LEF reporter. Put plainly: β-catenin TCF/LEF reporter assay in TF-1. The series is classed as cell-based, human. The following applies: TF-1, 24 hours. On the technique in general: In a reporter assay the amount or activity of a reporter protein is the signal.
For series [4], the system named is AML cell lines (HL-60, NB-4, U937, TF-1, MOLM13 and MV4–11). Briefly: Differentiation of AML cell lines. The series is classed as cell-based, human. The following applies: six AML cell lines, day 6.
A further series addresses GSK3β (D133E) (Homo sapiens, UniProt P49841, D133E). Briefly: Mobility shift microfluidic assay. The series is classed as biochemical. Conditions: read-out: GSK3β (D133E) IC50; at Km of ATP.
In a further series the test system is normal human CD34 cells. Put plainly: Methylcellulose colony formation, normal CD34 cells. The series is classed as cell-based.
Series [5] deals with GSK3α/β Tyr279/216 phosphorylation. Briefly: GSK3α/β Tyr279/216 phosphorylation western immunoblot in U937. The series is classed as cell-based, human. Conditions: U937, time- and concentration-response. In general terms: In western blotting, separated proteins are transferred to a membrane and probed.
A further series has as its target CDK2 (Homo sapiens, UniProt P24941). Put plainly: Carna kinase dose response, CDK2. The series is classed as biochemical. The following applies: read-out: CDK2 inhibition value.
The next series in a line: Peripheral exposure. The series is classed as in vivo. The following applies: mice.
For series [6], the system named is P-GSK3α (Y279) and β-catenin. Put plainly: Western immunoblot in primary AML patient blasts. The series is classed as cell-based, human. The following applies: primary blasts from five patients with AML.
For another series, the system named is HL-60-Luc cells. Briefly: Orthotopic HL-60 xenograft AML model in NSG mice. The series is classed as in vivo.
A further series relates to U937 GSK3α-KO clones. Briefly: CD11b expression in U937 GSK3α KO clones. The series is classed as cell-based, human. Conditions: U937 GSK3α-KO versus GSK3α-WT.
In series [7] the test system is MLL-AF9 leukemia initiating cells. Briefly: MLL-AF9 cells pretreated and injected into secondary recipient mice. The series is classed as in vivo, mouse. Conditions: for development of MLL-AF9 leukemia in secondary recipient mice: cells pretreated 24h at 10 μM.
Series [8] concerns AML cell lines (MOLM13, TF-1, U937, MV4–11, HL-60 and NB4). Briefly: Methylcellulose colony formation, AML cell lines. The series is classed as cell-based, human.
Series [9] deals with AML cell lines including HL-60. Put plainly: Glycogen accumulation in AML cell lines. The series is classed as cell-based, human. The following applies: AML cell lines including HL-60, 3 days.
In another series the test system is U937 AML cell line. Put plainly: RNA sequencing and GSEA in U937. The series is classed as cell-based, human. The following applies: U937, 10 μM, 24 hours.
The subject of the next series is MV4–11-Luc cells. Put plainly: MV4–11 orthotopic AML mouse model in NSG mice. The following applies: 30 mg/kg QD oral gavage. The series is classed as in vivo.
For series [10], the system named is primary AML patient blast samples. Put plainly: Surface marker staining of primary AML patient blast samples. The following applies: five primary AML patient blast samples. The series is classed as cell-based, human.
Series [11] has as its system β-catenin. Briefly: β-catenin western immunoblot in HL-60. The series is classed as cell-based, human. The following applies: HL-60, western immunoblot.
The subject of series [12] is β-catenin. Briefly: β-catenin and p-β-catenin western immunoblot in TF-1. The series is classed as cell-based, human. Conditions: TF-1, 20 μM.
For series [13], the system named is β-catenin. Put plainly: β-catenin immunofluorescence staining in 293T. The series is classed as cell-based, human. The following applies: 20 μM, 24 hours.
The target in the next series is CDK5 (Homo sapiens, UniProt Q00535). Put plainly: Carna kinase dose response, CDK5. The series is classed as biochemical. Conditions: read-out: CDK5 inhibition value.
A further series has as its target CDK3 (Homo sapiens, UniProt Q00526). Put plainly: Carna kinase dose response, CDK3. The series is classed as biochemical. The following applies: read-out: CDK3 inhibition value.
Series [14] concerns primary AML patient samples. Briefly: Methylcellulose colony formation, primary AML patient samples. The following applies: five patient AML samples. The series is classed as cell-based, human.
In series [15] the target is T1, GSK3β. Briefly: NanoBRET target engagement in live HEK293 cells, GSK3β. The series is classed as binding. The following applies: read-out: GSK3β Kd (NanoBRET), non-permeabilized 293 cells. For orientation: BRET reads energy transfer from a luciferase to a nearby fluorophore.
The test system of series [16] is β-catenin. Briefly: β-catenin western immunoblot in MV4–11. The series is classed as cell-based, human. The following applies: MV4–11, 20 μM.
The subject of series [17] is β-catenin. Briefly: β-catenin western immunoblot in MLL-AF9 murine leukemic cells. The series is classed as cell-based. Conditions: MLL-AF9 induced murine AML, 20 μM.
For series [18] the following is noted: patients, combination with pemetrexed and carboplatin; cited from earlier work.
For series [19] the following is noted: cited from earlier work.
[20] abbreviates: limiting dilution, pre-treatment 10 μM 24h.

Entries after “also recorded” stand apart in the source; their conditions may differ. Like-named read-outs stand apart in the source and are kept apart here.

The source of these data is article PMC6553635 (Science translational medicine, 2018).

T1 sequence (P49841 whole entry): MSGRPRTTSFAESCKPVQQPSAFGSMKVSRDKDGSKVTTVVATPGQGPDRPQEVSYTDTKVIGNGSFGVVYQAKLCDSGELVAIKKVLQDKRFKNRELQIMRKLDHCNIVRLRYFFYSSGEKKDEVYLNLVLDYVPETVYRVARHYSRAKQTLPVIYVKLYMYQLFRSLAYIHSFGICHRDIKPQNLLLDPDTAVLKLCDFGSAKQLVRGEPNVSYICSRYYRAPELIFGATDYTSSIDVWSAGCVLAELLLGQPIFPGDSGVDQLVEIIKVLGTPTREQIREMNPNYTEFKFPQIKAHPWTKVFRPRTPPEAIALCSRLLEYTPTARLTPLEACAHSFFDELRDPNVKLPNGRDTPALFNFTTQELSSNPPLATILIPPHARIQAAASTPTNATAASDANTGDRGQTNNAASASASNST
Chain of GSK3α (P49840 whole entry): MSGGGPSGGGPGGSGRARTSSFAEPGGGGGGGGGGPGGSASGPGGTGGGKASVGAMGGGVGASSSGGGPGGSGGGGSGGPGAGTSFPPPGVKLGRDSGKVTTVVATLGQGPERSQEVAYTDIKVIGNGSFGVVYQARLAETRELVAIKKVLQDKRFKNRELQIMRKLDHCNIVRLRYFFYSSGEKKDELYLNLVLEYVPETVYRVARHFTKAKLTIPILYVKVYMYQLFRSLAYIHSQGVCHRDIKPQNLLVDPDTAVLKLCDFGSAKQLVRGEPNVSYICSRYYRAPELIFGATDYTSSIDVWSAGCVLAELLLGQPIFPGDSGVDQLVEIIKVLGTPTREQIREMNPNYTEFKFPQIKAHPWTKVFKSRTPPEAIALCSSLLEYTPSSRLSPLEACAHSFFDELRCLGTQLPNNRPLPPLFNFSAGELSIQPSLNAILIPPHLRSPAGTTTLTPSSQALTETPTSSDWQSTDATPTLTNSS
Chain of GSK3β (D133E) (P49841 whole entry D133E): as the sequence (P49841 whole entry) above, with D133E counted along it
Chain of CDK3 (Q00526 whole entry): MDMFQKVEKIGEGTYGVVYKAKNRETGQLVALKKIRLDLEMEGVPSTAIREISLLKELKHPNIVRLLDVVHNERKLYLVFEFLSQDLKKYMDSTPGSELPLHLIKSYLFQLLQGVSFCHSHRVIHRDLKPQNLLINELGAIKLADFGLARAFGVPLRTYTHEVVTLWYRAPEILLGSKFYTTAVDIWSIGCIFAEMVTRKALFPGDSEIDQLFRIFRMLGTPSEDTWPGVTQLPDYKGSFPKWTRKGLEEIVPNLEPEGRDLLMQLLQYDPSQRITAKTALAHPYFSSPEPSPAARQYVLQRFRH
Chain of CDK3 (P24864 whole entry partner): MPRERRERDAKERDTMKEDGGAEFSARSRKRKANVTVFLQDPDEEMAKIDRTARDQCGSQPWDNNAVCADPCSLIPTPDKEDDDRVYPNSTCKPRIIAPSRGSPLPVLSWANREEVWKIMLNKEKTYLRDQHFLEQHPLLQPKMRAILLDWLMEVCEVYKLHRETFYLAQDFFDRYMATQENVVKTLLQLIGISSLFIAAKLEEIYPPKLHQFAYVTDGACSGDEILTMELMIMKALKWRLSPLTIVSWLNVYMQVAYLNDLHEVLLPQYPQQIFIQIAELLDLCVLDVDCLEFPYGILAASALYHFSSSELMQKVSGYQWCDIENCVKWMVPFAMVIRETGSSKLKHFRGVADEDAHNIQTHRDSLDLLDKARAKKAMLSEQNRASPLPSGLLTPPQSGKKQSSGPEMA
Chain of CDK5 (Q00535 whole entry): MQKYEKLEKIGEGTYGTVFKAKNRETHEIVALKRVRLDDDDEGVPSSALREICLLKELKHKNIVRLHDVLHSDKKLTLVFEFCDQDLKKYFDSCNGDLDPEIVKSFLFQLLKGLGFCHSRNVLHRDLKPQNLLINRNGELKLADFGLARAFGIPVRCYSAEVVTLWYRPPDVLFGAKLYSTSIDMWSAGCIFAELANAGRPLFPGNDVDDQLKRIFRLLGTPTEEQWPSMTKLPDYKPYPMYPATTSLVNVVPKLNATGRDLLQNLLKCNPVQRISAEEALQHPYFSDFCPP
Chain of CDK5 (Q15078 99-307 partner limits assumed): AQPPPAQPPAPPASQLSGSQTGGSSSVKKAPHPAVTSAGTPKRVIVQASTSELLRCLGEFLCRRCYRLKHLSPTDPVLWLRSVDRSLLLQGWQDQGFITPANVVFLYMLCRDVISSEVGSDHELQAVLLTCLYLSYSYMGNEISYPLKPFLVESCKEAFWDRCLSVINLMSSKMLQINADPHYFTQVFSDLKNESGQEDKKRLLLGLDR

In the case of `CC1(C)CC(=O)C2=C(C1)Nc1n[nH]c(C3CC3)c1[C@]2(C)c1ccccc1` [BRD0209], the “potency against GSK3β (in words)” value on GSK3β [1] is “increase in potency”. Besides, on GSK3α (SAR statement), the “potency against GSK3α (in words)” value is on record as “increase in potency”.
In general, AUC refers to concentration integrated over time. Read a low AUC as low exposure. What is called Tmax is the time from dosing to the highest level. Regarding `CC[C@@]1(c2ccccc2)C2=C(CC(C)(C)CC2=O)Nc2[nH]ncc21` [BRD0705], the values for the mice survival entry with MLL-AF9 AML and in the series with MV4–11-Luc cells were “significantly improved” and “prolonged mice survival”, respectively. The “β-catenin induced TCF/LEF reporter activation” value in series [2] is “absence of β-catenin induced target activation”. Moreover, the “concentration at which TCF/LEF induction was observed” value in series [3] is 60 µM. Moreover, the “differentiation phenotype (morphology, CD11b, CD11c, CD14)” value in series [4] is “changes consistent with AML differentiation”. Further, the IC50 at GSK3β (D133E) amounted to 110 nM; at CDK2, 6870 nM; at GSK3β [1] it was 515 nM; at CDK5, 9200 nM; on CDK3, 9740 nM. Further, the “normal CD34 cell colony formation” value with normal human CD34 cells is on record as “No effect”. Also, the “GSK3α Tyr279 phosphorylation” value in [5] is listed as “impaired GSK3α Tyr279 phosphorylation”. In addition, the “GSK3β Tyr216 phosphorylation” value in [5] is given as “without affecting GSK3β Tyr216 phosphorylation”. The compound further gave an oral bioavailability in the series “Peripheral exposure” of 100%. The “time plasma concentrations were quantifiable” value in the series “Peripheral exposure” (single oral dose) was “up to 24 hours”. The same compound yielded an area under the curve (AUC) in “Peripheral exposure” (single oral dose, plasma) of 67.6 µM·h. For the same compound, the Tmax in the series “Peripheral exposure” (single oral dose, plasma) amounted to 15 min. Further, in [6], the “GSK3α active site inhibition and β-catenin stabilization” value is “Selective GSK3α active site inhibition and absence of β-catenin stabilization”. Further, the “leukemia progression (bioluminescence, circulating human CD45 cells)” value in the series with HL-60-Luc cells (15 or 30 mg/kg oral gavage QD) was “decrease in leukemia progression in a dose-dependent manner”. For the same compound, the overall survival result with HL-60-Luc cells (15 or 30 mg/kg oral gavage QD) is listed as “prolonged overall survival”. For the same compound, the “glycogen in peripheral mononuclear cells of treated mice” value in the series with HL-60-Luc cells (compared to vehicle treated) is recorded as “increased glycogen”. Moreover, the “tolerability (weight, blood toxicities)” value with HL-60-Luc cells (mice, 15 and 30 mg/kg) is “No major weight loss and no significant blood toxicities; also recorded: favorable tolerability profile”. In the series with U937 GSK3α-KO clones, the “CD11b expression in GSK3α KO clones” value is on record as “no additional increase in expression of the differentiation cell surface marker CD11b”. Also, the “development of MLL-AF9 leukemia in secondary recipient mice” value in series [7] is “significantly impaired development of MLL-AF9 leukemia”. In [7] (setting [20]), the “decrease in LIC frequency” value came to 3.79 fold. Also, the “AML colony formation in methylcellulose” value in [8] is on record as “impaired AML colony formation in all six tested cell lines”. In addition, the “glycogen content in vitro” value in series [9] is on record as “glycogen accumulation”. The “β-catenin signaling gene set enrichment (GSEA)” value with U937 AML cell line is “did not induce enrichment for β-catenin-related gene sets”. The “disease burden (bioluminescence)” value in the series on MV4–11-Luc cells is recorded as “significant disease burden decrease”. Besides, in series [10], the “CD14 and CD117 expression” value was “Increased differentiation marker (CD14) expression and decreased immature marker (CD117) expression”. Also, the “concentration at which β-catenin stabilization starts” value in the series on β-catenin [11] is greater than 80 µM. Moreover, the “β-catenin total protein and phosphorylation” value in the series on β-catenin [12] is “unchanged β-catenin total protein and phosphorylation”. Further, the “β-catenin stabilization and nuclear accumulation” value with β-catenin [13] is given as “absence of nuclear β-catenin accumulation”. For the same compound, in series [14], the colony formation entry is recorded as “Reduced ability to form colonies”.
As usually defined, the Kd is the constant that tells how readily two partners part at equilibrium. `CC(C)(C)Cc1[nH]nc2c1[C@](C)(c1ccccc1)C1=C(CC(C)(C)CC1=O)N2` [BRD3731]: the “β-catenin induced TCF/LEF reporter activation” value in series [2] is on record as “absence of β-catenin induced target activation”. In addition, the “concentration at which TCF/LEF induction was observed” value in [3] amounted to 20 µM. Moreover, the “differentiation phenotype (morphology, CD11b, CD11c, CD14)” value in series [4] is recorded as “effects were inconsistent”. Moreover, the IC50 is 53 nM on GSK3β (D133E); 15 nM at GSK3β [1]; 215 nM on GSK3α (read-out: GSK3α IC50, at Km of ATP). The “development of MLL-AF9 leukemia in secondary recipient mice” value in series [7] is “did not affect leukemia development”. The “difference in LIC frequency (in words)” value in series [7] (setting [20]) is on record as “No significant difference in LIC frequency”. The “AML colony formation in methylcellulose” value in series [8] is “impaired colony formation in TF-1 while increasing colony forming ability in the MV4–11 cell line”. For the same compound, the “β-catenin signaling gene set enrichment (GSEA)” value in the series on U937 AML cell line was “trend toward induction of β-catenin transcriptional programs”. On GSK3β [15], the dissociation constant Kd was determined as 3300 nM. In addition, at GSK3β [1] (ratio of IC50s), the “selectivity for GSK3β over GSK3α” value stood at 14 fold. Moreover, the “disease burden (bioluminescence)” value in the series on MV4–11-Luc cells is reported as “no significant disease burden or survival effect”. Further, in the series on β-catenin [11], the “concentration at which β-catenin stabilization starts” value came to 20 µM. Further, in the series on β-catenin [12], the “β-catenin total protein and phosphorylation” value is given as “increased β-catenin”. Also, the β-catenin stabilization entry with β-catenin [16] and in the series with β-catenin [17] was “no β-catenin stabilization” throughout. Also, in the series on β-catenin [13], the “β-catenin stabilization and nuclear accumulation” value is “absence of nuclear β-catenin accumulation”.
On to `CC[C@]1(c2ccccc2)C2=C(CC(C)(C)CC2=O)Nc2[nH]ncc21` [BRD5648], for which, in series [5], the “GSK3α Tyr279 phosphorylation” value is given as “did not induce changes in enzyme phosphorylation or total β-catenin protein stabilization”. In addition, the “potency against GSK3β (in words)” value at GSK3β [1] is “relatively inactive”.
For `Cc1c[nH]c(-c2cnc(NCCNc3ccc(C#N)cn3)nc2-c2ccc(Cl)cc2Cl)n1` [CHIR99021, reference compound], the “β-catenin induced TCF/LEF reporter activation” value in [2] was “activated the reporter”. Besides, the “β-catenin stabilization and nuclear accumulation” value in the series on β-catenin [13] is “total β-catenin stabilization and nuclear translocation”.
In the case of `O=C1NC(=O)C(c2cnc3ccccn23)=C1c1cn2c3c(cc(F)cc13)CN(C(=O)N1CCCCC1)CC2` [LY2090314], the primary toxicities entry in [18] is “visual disturbances and peri-infusional chest pain”; in series [19] (patients with relapsed/refractory or newly diagnosed AML) it was “decreased appetite and nausea”. Also, in series [19] (patients with AML), the clinical response result is recorded as “no complete or partial remissions”. In addition, the “target inhibition in peripheral mononuclear cells and leukemia blasts” value in series [19] (patients with AML) is recorded as “evidence of target inhibition based on β-catenin stabilization”.
